Tests used:
Details in all cases: Compound concentration 10 µM
[1] = molecular target: T1, Muscarinic acetylcholine receptor M2 (Homo sapiens) (UniProt P08172)
T1 sequence (whole entry): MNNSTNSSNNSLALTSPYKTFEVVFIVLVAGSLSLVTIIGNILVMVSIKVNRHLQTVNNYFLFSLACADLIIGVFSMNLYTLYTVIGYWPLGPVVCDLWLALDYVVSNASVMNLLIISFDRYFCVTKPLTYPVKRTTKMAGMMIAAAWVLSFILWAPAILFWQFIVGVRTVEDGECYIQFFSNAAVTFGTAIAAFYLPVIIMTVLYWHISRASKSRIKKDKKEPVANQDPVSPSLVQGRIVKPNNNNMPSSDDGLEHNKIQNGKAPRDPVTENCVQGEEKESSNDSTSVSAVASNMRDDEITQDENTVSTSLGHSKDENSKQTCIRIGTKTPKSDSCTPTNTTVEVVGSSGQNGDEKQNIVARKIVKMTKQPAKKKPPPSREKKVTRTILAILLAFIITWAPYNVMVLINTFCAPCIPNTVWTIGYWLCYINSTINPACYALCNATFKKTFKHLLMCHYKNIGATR
Description: PDSP Primary Binding target: CHRM2 - Compounds are tested at 10 uM concentration, plate are incubated at room temperature in the dark for 90 minutes. Reaction are stopped by vacuum filtration onto 0.3% polyethyleneimine soaked filter mats using Filtermate harvester. Scintilation cocktail is then melted onto microwave-dried filters on a hot plate and the radio activity is counted in Microbia counter.

[2] = molecular target: 5-hydroxytryptamine receptor 2B (Homo sapiens) (UniProt P41595)
Chain of 5-hydroxytryptamine receptor 2B (Homo sapiens) (P41595 whole entry): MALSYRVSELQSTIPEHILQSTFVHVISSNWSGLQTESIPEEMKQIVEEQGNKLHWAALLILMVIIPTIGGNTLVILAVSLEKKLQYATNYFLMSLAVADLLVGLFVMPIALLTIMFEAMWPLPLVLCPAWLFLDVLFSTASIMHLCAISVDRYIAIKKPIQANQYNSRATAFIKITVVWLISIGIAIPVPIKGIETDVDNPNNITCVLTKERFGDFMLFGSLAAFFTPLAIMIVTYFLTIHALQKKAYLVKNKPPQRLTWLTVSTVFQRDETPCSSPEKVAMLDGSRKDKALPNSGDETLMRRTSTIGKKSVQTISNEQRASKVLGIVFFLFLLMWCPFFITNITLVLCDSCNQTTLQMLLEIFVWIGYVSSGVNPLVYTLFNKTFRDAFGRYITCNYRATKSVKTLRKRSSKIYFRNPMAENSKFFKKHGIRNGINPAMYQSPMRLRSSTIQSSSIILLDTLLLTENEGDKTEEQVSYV
Description: PDSP Primary Binding target: HTR2B - Compounds are tested at 10 uM concentration, plate are incubated at room temperature in the dark for 90 minutes. Reaction are stopped by vacuum filtration onto 0.3% polyethyleneimine soaked filter mats using Filtermate harvester. Scintilation cocktail is then melted onto microwave-dried filters on a hot plate and the radio activity is counted in Microbia counter.

[3] = molecular target: 5-hydroxytryptamine receptor 1E (Homo sapiens) (UniProt P28566)
Chain of 5-hydroxytryptamine receptor 1E (Homo sapiens) (P28566 whole entry): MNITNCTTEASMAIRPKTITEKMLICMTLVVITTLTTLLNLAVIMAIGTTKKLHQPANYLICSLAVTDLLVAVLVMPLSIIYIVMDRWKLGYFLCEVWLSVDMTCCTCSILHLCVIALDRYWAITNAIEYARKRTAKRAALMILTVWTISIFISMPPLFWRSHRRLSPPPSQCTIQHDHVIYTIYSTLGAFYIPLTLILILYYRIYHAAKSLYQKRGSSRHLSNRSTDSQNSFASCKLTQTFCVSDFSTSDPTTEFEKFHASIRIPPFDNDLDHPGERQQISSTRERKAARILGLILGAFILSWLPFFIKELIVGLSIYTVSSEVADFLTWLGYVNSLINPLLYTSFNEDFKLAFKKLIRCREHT
Description: PDSP Primary Binding target: HTR1E - Compounds are tested at 10 uM concentration, plate are incubated at room temperature in the dark for 90 minutes. Reaction are stopped by vacuum filtration onto 0.3% polyethyleneimine soaked filter mats using Filtermate harvester. Scintilation cocktail is then melted onto microwave-dried filters on a hot plate and the radio activity is counted in Microbia counter.

[4] = molecular target: Sigma intracellular receptor 2 (Homo sapiens) (UniProt Q5BJF2)
Chain of Sigma intracellular receptor 2 (Homo sapiens) (Q5BJF2 whole entry): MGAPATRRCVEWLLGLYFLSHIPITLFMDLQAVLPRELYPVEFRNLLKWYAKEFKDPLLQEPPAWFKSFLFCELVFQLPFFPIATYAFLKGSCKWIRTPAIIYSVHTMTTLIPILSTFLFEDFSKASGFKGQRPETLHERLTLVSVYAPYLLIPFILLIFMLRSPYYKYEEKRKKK
Description: PDSP Primary Binding target: TMEM97 - Compounds are tested at 10 uM concentration, plate are incubated at room temperature in the dark for 90 minutes. Reaction are stopped by vacuum filtration onto 0.3% polyethyleneimine soaked filter mats using Filtermate harvester. Scintilation cocktail is then melted onto microwave-dried filters on a hot plate and the radio activity is counted in Microbia counter.

[5] = molecular target: T2, Muscarinic acetylcholine receptor M1 (Homo sapiens) (UniProt P11229)
T2 sequence (whole entry): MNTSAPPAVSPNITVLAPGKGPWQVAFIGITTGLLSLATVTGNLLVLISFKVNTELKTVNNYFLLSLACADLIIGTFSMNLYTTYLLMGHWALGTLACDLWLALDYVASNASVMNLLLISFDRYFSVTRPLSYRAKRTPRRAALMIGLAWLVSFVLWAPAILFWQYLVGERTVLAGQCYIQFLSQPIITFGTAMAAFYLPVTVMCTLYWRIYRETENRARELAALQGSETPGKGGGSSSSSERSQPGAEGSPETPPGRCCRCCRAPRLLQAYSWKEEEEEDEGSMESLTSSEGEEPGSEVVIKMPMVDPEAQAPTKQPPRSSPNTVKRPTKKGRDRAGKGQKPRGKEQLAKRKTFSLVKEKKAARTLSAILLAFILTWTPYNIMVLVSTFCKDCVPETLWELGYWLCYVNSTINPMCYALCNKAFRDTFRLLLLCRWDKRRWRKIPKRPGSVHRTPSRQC
Description: PDSP Primary Binding target: CHRM1 - Compounds are tested at 10 uM concentration, plate are incubated at room temperature in the dark for 90 minutes. Reaction are stopped by vacuum filtration onto 0.3% polyethyleneimine soaked filter mats using Filtermate harvester. Scintilation cocktail is then melted onto microwave-dried filters on a hot plate and the radio activity is counted in Microbia counter.

[6] = molecular target: Beta-2 adrenergic receptor (Homo sapiens) (UniProt P07550)
Chain of Beta-2 adrenergic receptor (Homo sapiens) (P07550 whole entry, looked up): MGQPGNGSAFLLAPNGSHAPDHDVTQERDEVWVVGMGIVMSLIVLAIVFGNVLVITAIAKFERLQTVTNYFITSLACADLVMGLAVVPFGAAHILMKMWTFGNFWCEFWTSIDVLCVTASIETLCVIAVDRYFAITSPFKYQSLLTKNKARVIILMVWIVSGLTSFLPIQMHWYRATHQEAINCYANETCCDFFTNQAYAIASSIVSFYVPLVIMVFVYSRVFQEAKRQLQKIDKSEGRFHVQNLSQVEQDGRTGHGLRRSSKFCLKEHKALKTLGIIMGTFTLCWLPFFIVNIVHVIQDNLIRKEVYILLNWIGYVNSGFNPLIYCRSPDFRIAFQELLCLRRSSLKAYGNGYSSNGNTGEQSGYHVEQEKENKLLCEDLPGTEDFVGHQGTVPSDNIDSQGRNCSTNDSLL
Description: PDSP Primary Binding target: ADRB2 - Compounds are tested at 10 uM concentration, plate are incubated at room temperature in the dark for 90 minutes. Reaction are stopped by vacuum filtration onto 0.3% polyethyleneimine soaked filter mats using Filtermate harvester. Scintilation cocktail is then melted onto microwave-dried filters on a hot plate and the radio activity is counted in Microbia counter.

[7] = molecular target: 5-hydroxytryptamine receptor 5A (Homo sapiens) (UniProt P47898)
Chain of 5-hydroxytryptamine receptor 5A (Homo sapiens) (P47898 whole entry): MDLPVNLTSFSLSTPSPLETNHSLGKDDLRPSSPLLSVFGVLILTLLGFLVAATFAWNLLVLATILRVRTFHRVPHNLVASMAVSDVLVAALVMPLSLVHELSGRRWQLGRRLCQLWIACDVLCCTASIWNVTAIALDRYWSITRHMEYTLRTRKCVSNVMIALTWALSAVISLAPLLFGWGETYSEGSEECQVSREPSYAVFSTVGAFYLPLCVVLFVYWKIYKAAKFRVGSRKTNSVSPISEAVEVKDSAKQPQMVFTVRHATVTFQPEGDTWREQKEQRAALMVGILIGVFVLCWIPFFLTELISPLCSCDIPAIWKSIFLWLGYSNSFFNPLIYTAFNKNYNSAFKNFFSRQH
Description: PDSP Primary Binding target: HTR5A - Compounds are tested at 10 uM concentration, plate are incubated at room temperature in the dark for 90 minutes. Reaction are stopped by vacuum filtration onto 0.3% polyethyleneimine soaked filter mats using Filtermate harvester. Scintilation cocktail is then melted onto microwave-dried filters on a hot plate and the radio activity is counted in Microbia counter.

[8] = molecular target: T3, Alpha-2A adrenergic receptor (Homo sapiens) (UniProt P08913)
T3 sequence (whole entry): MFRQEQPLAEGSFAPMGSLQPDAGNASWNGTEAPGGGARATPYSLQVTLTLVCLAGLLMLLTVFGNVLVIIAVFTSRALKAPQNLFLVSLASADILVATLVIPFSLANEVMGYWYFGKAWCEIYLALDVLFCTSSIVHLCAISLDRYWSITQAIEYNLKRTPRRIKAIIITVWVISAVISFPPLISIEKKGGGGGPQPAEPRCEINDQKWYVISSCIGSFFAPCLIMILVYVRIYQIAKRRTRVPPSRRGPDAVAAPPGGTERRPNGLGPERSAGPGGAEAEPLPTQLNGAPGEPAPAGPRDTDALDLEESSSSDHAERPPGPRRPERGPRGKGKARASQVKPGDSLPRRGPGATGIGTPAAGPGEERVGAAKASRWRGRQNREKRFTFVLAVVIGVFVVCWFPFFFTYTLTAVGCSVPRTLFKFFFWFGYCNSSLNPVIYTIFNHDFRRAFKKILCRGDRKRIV
Description: PDSP Primary Binding target: ADRA2A - Compounds are tested at 10 uM concentration, plate are incubated at room temperature in the dark for 90 minutes. Reaction are stopped by vacuum filtration onto 0.3% polyethyleneimine soaked filter mats using Filtermate harvester. Scintilation cocktail is then melted onto microwave-dried filters on a hot plate and the radio activity is counted in Microbia counter.

[9] = molecular target: T4, Alpha-2C adrenergic receptor (Homo sapiens) (UniProt P18825)
T4 sequence (whole entry): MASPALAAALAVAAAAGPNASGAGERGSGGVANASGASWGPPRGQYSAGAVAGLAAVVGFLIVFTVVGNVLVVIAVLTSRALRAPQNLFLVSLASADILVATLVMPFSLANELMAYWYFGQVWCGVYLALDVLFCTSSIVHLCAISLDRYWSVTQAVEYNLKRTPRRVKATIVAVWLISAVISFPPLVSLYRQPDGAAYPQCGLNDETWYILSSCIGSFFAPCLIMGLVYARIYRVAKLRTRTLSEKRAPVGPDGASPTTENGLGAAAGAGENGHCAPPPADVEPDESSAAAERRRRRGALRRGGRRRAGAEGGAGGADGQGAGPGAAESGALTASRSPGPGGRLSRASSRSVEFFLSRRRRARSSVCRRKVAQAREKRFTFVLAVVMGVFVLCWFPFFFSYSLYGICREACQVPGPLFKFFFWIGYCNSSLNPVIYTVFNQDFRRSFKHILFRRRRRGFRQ
Description: PDSP Primary Binding target: ADRA2C - Compounds are tested at 10 uM concentration, plate are incubated at room temperature in the dark for 90 minutes. Reaction are stopped by vacuum filtration onto 0.3% polyethyleneimine soaked filter mats using Filtermate harvester. Scintilation cocktail is then melted onto microwave-dried filters on a hot plate and the radio activity is counted in Microbia counter.

[10] = molecular target: Muscarinic acetylcholine receptor M3 (Homo sapiens) (UniProt P20309)
Chain of Muscarinic acetylcholine receptor M3 (Homo sapiens) (P20309 whole entry, looked up): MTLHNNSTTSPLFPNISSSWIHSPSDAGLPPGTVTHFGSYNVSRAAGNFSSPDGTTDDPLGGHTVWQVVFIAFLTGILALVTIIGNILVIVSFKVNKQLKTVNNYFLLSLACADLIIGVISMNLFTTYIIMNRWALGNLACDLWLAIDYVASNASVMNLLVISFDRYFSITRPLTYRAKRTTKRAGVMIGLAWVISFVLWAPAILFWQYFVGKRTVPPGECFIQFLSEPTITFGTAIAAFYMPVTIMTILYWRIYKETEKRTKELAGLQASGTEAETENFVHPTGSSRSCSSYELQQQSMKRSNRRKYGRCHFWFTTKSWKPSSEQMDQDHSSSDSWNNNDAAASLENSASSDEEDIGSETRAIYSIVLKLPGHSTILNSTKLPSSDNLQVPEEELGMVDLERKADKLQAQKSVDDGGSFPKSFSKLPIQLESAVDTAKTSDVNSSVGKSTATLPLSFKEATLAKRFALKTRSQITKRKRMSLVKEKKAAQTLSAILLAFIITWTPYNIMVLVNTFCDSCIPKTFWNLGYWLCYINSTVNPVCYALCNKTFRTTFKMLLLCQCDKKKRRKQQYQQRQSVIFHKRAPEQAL
Description: PDSP Primary Binding target: CHRM3 - Compounds are tested at 10 uM concentration, plate are incubated at room temperature in the dark for 90 minutes. Reaction are stopped by vacuum filtration onto 0.3% polyethyleneimine soaked filter mats using Filtermate harvester. Scintilation cocktail is then melted onto microwave-dried filters on a hot plate and the radio activity is counted in Microbia counter.

[11] = molecular target: 5-hydroxytryptamine receptor 1B (Homo sapiens) (UniProt P28222)
Chain of 5-hydroxytryptamine receptor 1B (Homo sapiens) (P28222 whole entry): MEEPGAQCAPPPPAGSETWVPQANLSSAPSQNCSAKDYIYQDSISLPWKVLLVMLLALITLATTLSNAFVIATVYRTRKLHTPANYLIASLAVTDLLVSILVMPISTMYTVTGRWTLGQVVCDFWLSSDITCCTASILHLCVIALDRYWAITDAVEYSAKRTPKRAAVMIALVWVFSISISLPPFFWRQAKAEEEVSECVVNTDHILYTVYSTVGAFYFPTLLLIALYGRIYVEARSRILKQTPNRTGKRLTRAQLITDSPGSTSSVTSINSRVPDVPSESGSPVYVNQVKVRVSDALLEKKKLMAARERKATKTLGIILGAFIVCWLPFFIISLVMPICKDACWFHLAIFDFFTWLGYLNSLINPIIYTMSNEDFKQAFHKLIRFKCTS
Description: PDSP Primary Binding target: HTR1B - Compounds are tested at 10 uM concentration, plate are incubated at room temperature in the dark for 90 minutes. Reaction are stopped by vacuum filtration onto 0.3% polyethyleneimine soaked filter mats using Filtermate harvester. Scintilation cocktail is then melted onto microwave-dried filters on a hot plate and the radio activity is counted in Microbia counter.

[12] = molecular target: T5, D(4) dopamine receptor (Homo sapiens) (UniProt P21917)
T5 sequence (whole entry): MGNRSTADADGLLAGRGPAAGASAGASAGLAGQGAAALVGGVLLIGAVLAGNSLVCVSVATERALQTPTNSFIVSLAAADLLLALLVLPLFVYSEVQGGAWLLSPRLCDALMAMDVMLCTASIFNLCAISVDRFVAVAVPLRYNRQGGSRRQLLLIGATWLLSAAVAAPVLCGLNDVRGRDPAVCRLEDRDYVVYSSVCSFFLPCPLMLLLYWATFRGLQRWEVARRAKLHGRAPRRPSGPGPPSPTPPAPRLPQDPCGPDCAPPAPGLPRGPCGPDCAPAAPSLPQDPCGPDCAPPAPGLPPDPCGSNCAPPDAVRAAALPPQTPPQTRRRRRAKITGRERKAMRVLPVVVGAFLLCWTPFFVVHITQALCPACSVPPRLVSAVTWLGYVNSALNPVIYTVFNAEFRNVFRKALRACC
Description: PDSP Primary Binding target: DRD4 - Compounds are tested at 10 uM concentration, plate are incubated at room temperature in the dark for 90 minutes. Reaction are stopped by vacuum filtration onto 0.3% polyethyleneimine soaked filter mats using Filtermate harvester. Scintilation cocktail is then melted onto microwave-dried filters on a hot plate and the radio activity is counted in Microbia counter.

| SMILES | inhibition [1] [%] | inhibition [2] [%] | inhibition [3] [%] | inhibition [4] [%] | inhibition [5] [%] | inhibition [6] [%] | inhibition [7] [%] | inhibition [8] [%] | inhibition [9] [%] | inhibition [10] [%] | inhibition [11] [%] | inhibition [12] [%] |
| --- | --- | --- | --- | --- | --- | --- | --- | --- | --- | --- | --- | --- |
| CC(C)NC(=O)c1ccc(C#Cc2ccncc2)cn1 | 53.1 | 34.4 | -1.26 | 8.09 | -0.6 | -8.85 | – | – | – | – | – | – |
| COc1ccc2cc(S(=O)(=O)N[C@H](CC(=O)N[C@H](Cc3ccc(CN4[C@H](C)CCC[C@@H]4C)cc3)C(=O)N(C)C(C)C)c3ccc4c(c3)OCO4)ccc2c1 | 69.6 | 27.5 | – | 97.7 | 44.5 | – | 20.3 | 39.4 | 71.8 | 14.5 | 31.1 | 33.2 |
| CC1=C2C[C@H]3[C@@H](CC=C4C[C@@H](O)CC[C@@]43C)[C@@H]2CC[C@]12O[C@@H]1C[C@H](C)CN[C@H]1[C@H]2C | -1.88 | – | 6.19 | 91.8 | 22.8 | 5.22 | – | -1.14 | – | -6.3 | – | – |
| COc1cccc(-c2c(C)n(Cc3c(F)cccc3C(F)(F)F)c(=O)n(C[C@H](NCCCC(=O)O)c3ccccc3)c2=O)c1F | 3.22 | -6.96 | 11.7 | – | 26.2 | – | 35.8 | – | -3.99 | -7.5 | 15.5 | 25.8 |
| Cc1nc(C#Cc2ccnc(Cl)c2)c(C)n1-c1ccc(OC(F)(F)F)cc1 | -0.78 | 19.6 | 20.5 | 75.5 | 26.6 | – | 30 | 23.9 | -5.37 | -6.52 | 11.3 | -0.11 |
| N#Cc1c(O)nc(SCc2cccc(F)c2F)nc1C1CC1 | 28.1 | 9.1 | -5.94 | 8.9 | -6.12 | 5.94 | 8.42 | – | 5.91 | 5.27 | -9.63 | -4.74 |
| O=C1O[C@]2(CC[C@H](C(=O)Nc3ccn(-c4ccccc4F)n3)CC2)c2cnccc21 | -5.81 | 17.5 | 5.31 | -5.33 | -6 | – | – | -9.69 | – | 2.94 | -3.32 | – |
| CC1(C)SSC(C)(C)[C@@H](NC(=O)[C@@H](N)Cc2ccc(O)cc2)C(=O)NCC(=O)N[C@@H](Cc2ccccc2)C(=O)N[C@H]1C(=O)O | -9.99 | 24.7 | 17.2 | 22.6 | -6.96 | -0.03 | -9.01 | 13.7 | -6.75 | -1.79 | 7.79 | 49 |
